Laboratory results taken from ChEMBL document CHEMBL1201862, “PubChem BioAssay data set” (2004).
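Method: 48-hour compound exposure of cells in 96-well plates, five concentrations, linear interpolation of endpoints. GI50: concentration for 50% inhibition of growth.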 Activity calls are given as the source filed them. Rule as the data show it: active = GI50 up to about 1.1 µM and inactive = higher.

Experiments:
Assay in all cases: growth of human tumour cells (NCI), 48 h
[1] = test system: MCF7
[2] = test system: HCT-15
[3] = test system: SW-620
[4] = test system: 786-0
[5] = test system: MDA-N
[6] = test system: MOLT-4
[7] = test system: M14
[8] = test system: BT-549
[9] = test system: U-251
[10] = test system: TK-10
[11] = test system: NCI/ADR-RES
[12] = test system: PC-3
[13] = test system: UO-31
[14] = test system: LOX IMVI
[15] = test system: HT-29
[16] = test system: SK-MEL-2
[17] = test system: SF-268
[18] = test system: CAKI-1
[19] = test system: HL-60

| Structure (SMILES) | GI50 [1] | GI50 [2] | GI50 [3] | GI50 [4] | GI50 [5] | GI50 [6] | GI50 [7] | GI50 [8] | GI50 [9] | GI50 [10] | GI50 [11] | GI50 [12] | GI50 [13] | GI50 [14] | GI50 [15] | GI50 [16] | GI50 [17] | GI50 [18] | GI50 [19] |
| --- | --- | --- | --- | --- | --- | --- | --- | --- | --- | --- | --- | --- | --- | --- | --- | --- | --- | --- | --- |
| CC1NC(=O)c2c(-c3ccccc3)nn(-c3ccccc3)c2NC1=O (stereo unspecified) | > 100 µM (inactive) | > 100 µM | > 100 µM (inactive) | > 100 µM (inactive) | > 100 µM (inactive) | > 100 µM (inactive) | > 100 µM (inactive) | > 100 µM (inactive) | > 100 µM (inactive) | > 100 µM (inactive) | > 100 µM (inactive) | > 100 µM (inactive) | > 100 µM (inactive) | > 100 µM (inactive) | > 100 µM (inactive) | > 100 µM (inactive) | > 100 µM (inactive) | > 100 µM (inactive) | – |
| COC(=O)[C@@H]1CS(=O)(=O)C(C(C)C)N1C(C)=O (stereo partly specified) | > 100 µM (inactive) | > 100 µM | > 100 µM (inactive) | > 100 µM (inactive) | > 100 µM (inactive) | – | > 100 µM (inactive) | > 100 µM (inactive) | > 100 µM (inactive) | > 100 µM (inactive) | > 100 µM (inactive) | > 100 µM (inactive) | > 100 µM (inactive) | > 100 µM (inactive) | > 100 µM (inactive) | > 100 µM (inactive) | > 100 µM (inactive) | > 100 µM (inactive) | 7.19 µM (inactive) |
| CSc1ncc2c(C#N)c3[nH]c4ccccc4n3c(=O)c2n1 | 19.7 µM (inactive) | 9.71 µM | 23.6 µM (inactive) | 31.7 µM (inactive) | 24.3 µM (inactive) | 4.28 µM (inactive) | 16.7 µM (inactive) | 20.6 µM (inactive) | 15.8 µM (inactive) | 31.5 µM (inactive) | 4.89 µM (inactive) | 5.83 µM (inactive) | 8.13 µM (inactive) | 21.7 µM (inactive) | – | 8.49 µM (inactive) | 28 µM (inactive) | 22.8 µM (inactive) | 7.29 µM (inactive) |
| O=C(Nc1ccc2[nH]c(C(=O)N3CC(CCl)c4c3cc([N+](=O)[O-])c3ccccc43)cc2c1)c1cc2ccccc2o1 (stereo unspecified) | 23 µM (inactive) | > 63.4 µM | > 58.1 µM (inactive) | > 100 µM (inactive) | > 100 µM (inactive) | – | > 100 µM (inactive) | 38.2 µM (inactive) | > 54.3 µM (inactive) | > 54.5 µM (inactive) | > 50.6 µM (inactive) | > 50.6 µM (inactive) | > 100 µM (inactive) | > 51.2 µM (inactive) | > 100 µM (inactive) | > 57 µM (inactive) | > 100 µM (inactive) | > 100 µM (inactive) | 22.1 µM (inactive) |
| CC(=O)O[C@H]1C(=O)[C@@]2(C)[C@H]([C@H](OC(=O)C3CCCCC3)[C@]3(O)C[C@H](OC(=O)[C@H](O)[C@@H](NC(=O)OC(C)(C)C)c4ccccc4)C(C)=C1C3(C)C)[C@]1(OC(C)=O)CO[C@@H]1C[C@@H]2O | 0.00259 µM (active) | 0.268 µM | 0.00634 µM (active) | 0.0176 µM (active) | 0.00169 µM (active) | 0.00474 µM (active) | 0.00724 µM (active) | 0.0134 µM (active) | 0.0137 µM (active) | 0.151 µM (active) | > 3.03 µM (inactive) | 0.0168 µM (active) | 0.849 µM (active) | 0.00817 µM (active) | 0.00335 µM (active) | 0.0803 µM (active) | 0.202 µM (active) | – | 0.00125 µM (active) |
| N#CCC1COc2ccccc2O1 (stereo unspecified) | > 10 µM (inactive) | > 10 µM | > 10 µM (inactive) | > 10 µM (inactive) | > 10 µM (inactive) | > 10 µM (inactive) | > 10 µM (inactive) | > 10 µM (inactive) | > 10 µM (inactive) | > 10 µM (inactive) | > 10 µM (inactive) | > 10 µM (inactive) | – | > 10 µM (inactive) | > 10 µM (inactive) | – | > 10 µM (inactive) | > 10 µM (inactive) | > 10 µM (inactive) |
| C[C@]12CC[C@@H]3c4cc(C=O)c(OCc5ccccc5)cc4CC[C@H]3[C@@H]1CCC2OCc1ccccc1 (stereo partly specified) | > 100 µM (inactive) | > 100 µM | > 100 µM (inactive) | > 100 µM (inactive) | > 100 µM (inactive) | > 100 µM (inactive) | > 100 µM (inactive) | > 100 µM (inactive) | > 100 µM (inactive) | > 100 µM (inactive) | > 100 µM (inactive) | 56.6 µM (inactive) | > 100 µM (inactive) | > 100 µM (inactive) | > 100 µM (inactive) | > 100 µM (inactive) | > 100 µM (inactive) | > 100 µM (inactive) | > 100 µM (inactive) |
